Structures are written as SMILES.

This assay has as its system Cell Necrosis. Briefly: Cell necrosis assay / cell viability assay (necrosis inhibitor activity). In kind it is cell-based. Conditions: necrosis inhibitor activity; compounds outside 14-191; read-out: EC50.
With `N#Cc1ccc(C=C2CN(C(=O)N3N=CC[C@H]3c3cncc(F)c3)C2)c(F)n1` [Compound 324, (S)-6-fluoro-5-((1-(5-(5-fluoropyridin-3-yl)-4,5-dihydro-1H-pyrazole-1-carbonyl)azetidin-3-ylidene)methyl)picolinonitrile], the EC50 is 1 to 1000 nM. For the molecule `O=C(Nc1nc(N2CCN(C(=O)N3N=CC[C@H]3c3cc(F)cc(F)c3)CC2)ncc1F)C1CCCC1` [Compound 325, (S)—N-(2-(4-(5-(3,5-difluorophenyl)-4,5-dihydro-1H-pyrazole-1-carbonyl)piperazin-1-yl)-5-fluoropyrimidin-4-yl)cyclopentanecarboxamide], the EC50 fell in the range of 1 to 1000 nM.

For the molecule `O=C(N1CC(=Cc2cc(NC3CC3)ncc2F)C1)N1N=CC[C@H]1c1cc(F)cc(F)c1` [Compound 326, (S)-(3-((2-(cyclopropylamino)-5-fluoropyridin-4-yl)methylene)azetidin-1-yl)(5-(3,5-difluorophenyl)-4,5-dihydro-1H-pyrazol-1-yl)methanone], the EC50 fell in the range of 1 to 1000 nM. As to `O=C(N1CC(=Cc2cnc3c(F)n[nH]c3c2)C1)N1N=CC[C@H]1c1cc(F)cc(F)c1` [Compound 327], the EC50 was in the range of 1 to 1000 nM. Regarding `O=C(Nc1nc(N2CCN(C(=O)N3N=CC[C@H]3c3cc(F)cc(F)c3)CC2)ncc1F)C1CCC1` [Compound 328, (S)—N-(2-(4-(5-(3,5-difluorophenyl)-4,5-dihydro-1H-pyrazole-1-carbonyl)piperazin-1-yl)-5-fluoropyrimidin-4-yl)cyclobutanecarboxamide], the 50% effective concentration (EC50) lay in the range of 1 to 1000 nM.

Take `O=C(N1CC(=Cc2cc(F)ncc2F)C1)N1N=CC[C@H]1c1cc(F)cc(F)c1` [Compound 329]: the EC50 fell in the range of 1 to 1000 nM.

As to `N#Cc1cc(Cl)nc(O[C@H]2CCN(C(=O)N3N=CC[C@H]3c3cc(F)cc(F)c3)C2)c1` [Compound 330, 2-chloro-6-(((S)-1-((S)-5-(3,5-difluorophenyl)-4,5-dihydro-1H-pyrazole-1-carbonyl)pyrrolidin-3-yl)oxy)isonicotinonitrile], the EC50 is 1 to 1000 nM. Take `NC(=O)c1cc(Cl)nc(O[C@H]2CCN(C(=O)N3N=CC[C@H]3c3cc(F)cc(F)c3)C2)c1` [Compound 331, 2-chloro-6-(((S)-1-((S)-5-(3,5-difluorophenyl)-4,5-dihydro-1H-pyrazole-1-carbonyl)pyrrolidin-3-yl)oxy)isonicotinamide]: the EC50 is 1 to 1000 nM. `NC(=O)c1ccnc(O[C@@H]2CCN(C(=O)N3N=CC[C@H]3c3cc(F)cc(F)c3)C2)n1` [Compound 332, 2-(((R)-1-((S)-5-(3,5-difluorophenyl)-4,5-dihydro-1H-pyrazole-1-carbonyl)pyrrolidin-3-yl)oxy)pyrimidine-4-carboxamide]: the 50% effective concentration (EC50) lay within 1 to 1000 nM. Take `N#Cc1cncc(O[C@@H]2CCN(C(=O)N3N=CC[C@H]3c3cc(F)cc(F)c3)C2)n1` [Compound 335, 6-(((R)-1-((S)-5-(3,5-difluorophenyl)-4,5-dihydro-1H-pyrazole-1-carbonyl)pyrrolidin-3-yl)oxy)pyrazine-2-carbonitrile]: the EC50 lay in the range of 1 to 1000 nM. For `N#Cc1ccnc(O[C@@H]2CCN(C(=O)N3N=CC[C@H]3c3cc(F)cc(F)c3)C2)c1` [Compound 336, 2-(((R)-1-((S)-5-(3,5-difluorophenyl)-4,5-dihydro-1H-pyrazole-1-carbonyl)pyrrolidin-3-yl)oxy)isonicotinonitrile], the EC50 fell in the range of 1 to 1000 nM.

With `N#Cc1cccc(O[C@@H]2CCN(C(=O)N3N=CC[C@H]3c3cc(F)cc(F)c3)C2)n1` [Compound 337, 6-(((R)-1-((S)-5-(3,5-difluorophenyl)-4,5-dihydro-1H-pyrazole-1-carbonyl)pyrrolidin-3-yl)oxy)picolinonitrile], the EC50 was 1 to 1000 nM. With `O=C(N1CC(Oc2ccc(Cl)nc2F)C1)N1N=CC[C@H]1c1cc(F)cc(F)c1` [Compound 338, (S)-(3-((6-chloro-2-fluoropyridin-3-yl)oxy)azetidin-1-yl)(5-(3,5-difluorophenyl)-4,5-dihydro-1H-pyrazol-1-yl)methanone], the EC50 was in the range of 1 to 1000 nM. As for `N#Cc1nc(O[C@@H]2CCN(C(=O)N3N=CC[C@H]3c3cc(F)cc(F)c3)C2)ccc1Cl` [Compound 339, 3-chloro-6-(((R)-1-((S)-5-(3,5-difluorophenyl)-4,5-dihydro-1H-pyrazole-1-carbonyl)pyrrolidin-3-yl)oxy)picolinonitrile], the EC50 is 1 to 1000 nM. Next, `N#Cc1cc(O[C@@H]2CCN(C(=O)N3N=CC[C@H]3c3cc(F)cc(F)c3)C2)ccn1` [Compound 340, 4-(((R)-1-((S)-5-(3,5-difluorophenyl)-4,5-dihydro-1H-pyrazole-1-carbonyl)pyrrolidin-3-yl)oxy)picolinonitrile]: 1 to 1000 nM.

Regarding `N#Cc1ccc(F)c(O[C@@H]2CCN(C(=O)N3N=CC[C@H]3c3cc(F)cc(F)c3)C2)c1` [Compound 341, 3-(((R)-1-((S)-5-(3,5-difluorophenyl)-4,5-dihydro-1H-pyrazole-1-carbonyl)pyrrolidin-3-yl)oxy)-4-fluorobenzonitrile], the concentration for a half-maximal effect (EC50) lay within 1 to 1000 nM. Under `N#Cc1cc(O[C@@H]2CCN(C(=O)N3N=CC[C@H]3c3cc(F)cc(F)c3)C2)ccc1F` [Compound 342, 5-(((R)-1-((S)-5-(3,5-difluorophenyl)-4,5-dihydro-1H-pyrazole-1-carbonyl)pyrrolidin-3-yl)oxy)-2-fluorobenzonitrile] stands 1 to 1000 nM; under `N#Cc1ccc(O[C@@H]2CCN(C(=O)N3N=CC[C@H]3c3cc(F)cc(F)c3)C2)cc1` [Compound 343, 4-(((R)-1-((S)-5-(3,5-difluorophenyl)-4,5-dihydro-1H-pyrazole-1-carbonyl)pyrrolidin-3-yl)oxy)benzonitrile], 1 to 1000 nM. Under `N#Cc1nccc(N[C@@H]2CCN(C(=O)N3N=CC[C@H]3c3cc(F)cc(F)c3)C2)n1` [Compound 348] stands 1 to 1000 nM.

In the case of `CC1Oc2ccc(OC3CN(C(=O)N4N=CC[C@H]4c4cc(F)cc(F)c4)C3)cc2NC1=O` (stereo partly drawn) [Compound 349, 6-((1-((S)-5-(3,5-difluorophenyl)-4,5-dihydro-1H-pyrazole-1-carbonyl)azetidin-3-yl)oxy)-2-methyl-2H-benzo[b][1,4]oxazin-3(4H)-one], the EC50 lay in the range of 1 to 1000 nM.

For `CC1Oc2cc(F)c(OC3CN(C(=O)N4N=CC[C@H]4c4cc(F)cc(F)c4)C3)cc2NC1=O` (stereo partly drawn) [Compound 350, 6-((1-((S)-5-(3,5-difluorophenyl)-4,5-dihydro-1H-pyrazole-1-carbonyl)azetidin-3-yl)oxy)-7-fluoro-2-methyl-2H-benzo[b][1,4]oxazin-3(4H)-one], the EC50 lay in the range of 1 to 1000 nM. As to `CC1Oc2cc(F)c(OC3CN(C(=O)N4N=CC[C@H]4c4cc(F)cc(C#N)c4)C3)cc2NC1=O` (stereo partly drawn) [Compound 351, 3-fluoro-5-((5S)-1(3-((7-fluoro-2-methyl-3-oxo-3,4-dihydro-2H-benzo[b][1,4]oxazin-6-yl)oxy)azetidine-1-carbonyl)-4,5-dihydro-1H-pyrazol-5. yl)benzonitrile], the EC50 lay within 1 to 1000 nM. For `CC1Oc2cc(F)c(OC3CN(C(=O)N4N=CC[C@H]4c4ccccc4)C3)cc2NC1=O` (stereo partly drawn) [Compound 352, 7-fluoro-2-methyl-6-((1-((S)-5-phenyl-4,5-dihydro-1H-pyrazole-1-carbonyl)azetidin-3-yl)oxy)-2H-benzo[b][1,4]oxazin-3(4H)-one], the EC50 was in the range of 1 to 1000 nM.

Regarding `CC1Oc2ccc(OC3CN(C(=O)N4N=CC[C@H]4c4cc(F)cc(F)c4)C3)cc2NC1=O` (stereo partly drawn) [Compound 353, 6-((1-((S)-5-(3,5-difluorophenyl)-4,5-dihydro-1H-pyrazole-1-carbonyl)azetidin-3-yl)oxy)-2-methyl-2H-benzo[b][1,4]oxazin-3(4H)-one], the EC50 lay in the range of 1 to 1000 nM. With `CC1Oc2ccc(OC3CN(C(=O)N4N=CC[C@H]4c4cc(F)cc(C#N)c4)C3)cc2NC1=O` (stereo partly drawn) [Compound 354, 3-fluoro-5-((5S)-1-(3-((2-methyl-3-oxo-3,4-dihydro-2H-benzo[b][1,4]oxazin-6-yl)oxy)azetidine-1-carbonyl)-4,5-dihydro-1H-pyrazol-5-yl)benzonitrile], the EC50 lay in the range of 1 to 1000 nM. In the case of `CC1Oc2ccc(OC3CN(C(=O)N4N=CC[C@H]4c4ccccc4)C3)cc2NC1=O` (stereo partly drawn) [Compound 355, 2-methyl-6-((1-((S)-5-phenyl-4,5-dihydro-1H-pyrazole-1-carbonyl)azetidin-3-yl)oxy)-2H-benzo[b][1,4]oxazin-3(4H)-one], the concentration for a half-maximal effect (EC50) lay within 1 to 1000 nM. As for `COc1cccc(O[C@@H]2CCN(C(=O)N3N=CC[C@H]3c3cc(F)cc(F)c3)C2)n1` [Compound 356, ((S)-5-(3,5-difluorophenyl)-4,5-dihydro-1H-pyrazol-1-yl)((R)-3-((6-methoxypyridin-2-yl)oxy)pyrrolidin-1-yl)methanone], the EC50 lay in the range of 1 to 1000 nM. Next, `O=C(N1CC[C@@H](Oc2cccc(NCCN3CCOCC3)n2)C1)N1N=CC[C@H]1c1cc(F)cc(F)c1` [Compound 358]: 1 to 1000 nM. Consider `N#Cc1ccnc(O[C@@H]2CCN(C(=O)N3N=CC[C@H]3c3cc(F)cc(F)c3)C2)n1` [Compound 359, 2-(((R)-1-((S)-5-(3,5-difluorophenyl)-4,5-dihydro-1H-pyrazole-1-carbonyl)pyrrolidin-3-yl)oxy)pyrimidine-4-carbonitrile], for which the EC50 was in the range of 1 to 1000 nM. For `N#Cc1cc(O[C@@H]2CCN(C(=O)N3N=CC[C@H]3c3cc(F)cc(F)c3)C2)ncn1` [Compound 360, 6-(((R)-1-((S)-5-(3,5-difluorophenyl)-4,5-dihydro-1H-pyrazole-1-carbonyl)pyrrolidin-3-yl)oxy)pyrimidine-4-carbonitrile], the EC50 lay in the range of 1 to 1000 nM. As for `NC(=O)c1cc(O[C@@H]2CCN(C(=O)N3N=CC[C@H]3c3cc(F)cc(F)c3)C2)ncn1` [Compound 361], the EC50 lay in the range of 1 to 1000 nM. Consider `N#Cc1nccc(O[C@@H]2CCN(C(=O)N3N=CC[C@H]3c3cc(F)cc(F)c3)C2)n1` [Compound 362, 4-(((R)-1-((S)-5-(3,5-difluorophenyl)-4,5-dihydro-1H-pyrazole-1-carbonyl)pyrrolidin-3-yl)oxy)pyrimidine-2-carbonitrile], for which the EC50 lay in the range of 1 to 1000 nM. Take `COc1nc(O[C@@H]2CCN(C(=O)N3N=CC[C@H]3c3cc(F)cc(F)c3)C2)ncc1F` [Compound 363, ((S)-5-(3,5-difluorophenyl)-4,5-dihydro-1H-pyrazol-1-yl)((R)-3-((5-fluoro-4-methoxypyrimidin-2-yl)oxy)pyrrolidin-1-yl)methanone]: the EC50 fell in the range of 1 to 1000 nM.

The values above are taken from patent US12662469B2 (SIRONAX LTD, priority 2018, dated 2026).
